Here are results for three compounds from US6627601B2, “Neuroprotective peptides and uses thereof” (Protarga, Inc., priority 1998, dated 2003).

The subject of test [1] is rat brain hippocampal cells. The experiment in a line: glutamate induced neurotoxicity in hippocampal neuron cultures. It is filed as cell-based. As to conditions: 3 days of culture. As for the experimental part: The effect of the neuroprotective peptides was tested on rat brain hippocampal cells. Rat brain hippocampi were isolated by dissection of 18 day old rat fetuses. […] The cultures were then incubated for 30 min at 37° C. after which glutamate was added at the concentrations indicated. Cells were counted after 3 days of culture; healthy cells and total cells were counted.

Test [2] is described as follows: fura-2 calcium chelation assay in cells loaded with fura-2 and calcium. It is filed as cell-based. As for the experimental part: Any of the foregoing peptides can be tested for calcium binding by well known assays of calcium chelation (see, e.g. Cornell-Bell et al., Science 247:470-473, 1990; Cornell-Bell et al., Cell Calcium 12:185-204, 1991). For example, one preferred method employs the calcium sensitive dye fura-2 to measure the chelation of calcium by the isolated peptides. In such an assay, cells are loaded with fura-2 and calcium. […] An isolated peptide then is added to the cells and the diminution of fura-2 fluorescence is determined. Dose response experiments can be performed to determine the concentration at which the isolated peptide completely eliminates fura-2 fluorescence. For example, the isolated peptide of SEQ ID NO:4 completely eliminates fura-2 fluorescence at a concentration of 1 pg/ml in the cell culture medium.
Peptides, including variant peptides, can be tested for retention for any of the foregoing properties. For example, the peptides can be tested for in vitro properties initially to determine which of the variant peptides retain the ability to bind calcium ions and/or stimulate the expression of transcription factors. In vitro assays of calcium binding include contacting the peptide with an environment which contains calcium, such as a cell preloaded with calcium and a fluorescent calcium-sensitive dye, and determining the calcium binding of the peptide Peptides which retain one or more of these properties can then be used in in vivo assays of neuroprotection such as the Mongolian gerbil assay described below. Neuroprotective peptides or their variants which are conjugated to targeting compounds, labels, blood-brain barrier carriers and the like can be tested for retention of neuroprotective activity as well as for the activity of the conjugated compound (e.g., appropriate targeting, detectable labeling, ability to cross the blood-brain barrier, etc.).

Test [3] concerns CA1 and CA3 hippocampal neurons. The experiment in a line: histological cell density/survival of hippocampal neurons in gerbil brains after forebrain ischemia. It is filed as in vivo, male Mongolian gerbil. As for the experimental part: At the time of the sacrifice, each animal was deeply anesthetized and perfused transcardially with heparinized saline followed by paraformaldehyde (4%) in phosphate buffered saline. After fixation the brains were placed in 30% sucrose for 3 days, embedded in glutaraldehyde-gelatin, cut frozen into 30μ serial sections for morphometric analysis, and stained with cresyl violet. The cell densities per 1000 microns2 were determined by computer assisted counting of grey level images at 300× viewed through an Axioplan microscope. It was determined that a maximum of 62% of the hippocampal pyramidal cells survived the ischemia in the presence of NMI 9236 as compared to 4% survival for the control saline non-drug treated animals. All analyses were carried out blind.
At 8 days post surgery the gerbils were sacrificed, perfusion fixed with formalin, and each perfused brain was embedded in glutaraldehyde-gelatin. About 300 serial sections (40 microns thick) were cut from each frozen brain, and stained with cresyl violet. Cell morphometric analysis was carried out on one out of every 10 sections by computer-assisted cell density counting of grey level images viewed at 300× through an Axioplan microscope. Focused camera input (Sony CCD) from the microscope to the IBS video screen of the Zeiss IBAS/KONTRON Image analysis system was normalized and segmented before assessing cell number. The average cell density present per a 1000 micron^2 region of the CA1 and CA3 pyramidal cell layers for the left and right side of each were determined. The analysis was carried out blind.

Test [4] deals with AP-1 transcription factor. The experiment in a line: EMSA of AP-1 in nuclear extracts of neuroblastoma cultures. It is filed as cell-based, mouse. As for the experimental part: (§1) It was determined that NMI 9236 can turn on specific genes related to neuronal growth in neuroblastoma tissue culture experiments.
(§2) The activation of specific transcription factors was assayed using an electrophoretic mobility shift assay (EMSA, for review see: Kerr, Meth. Enzymol 254:619-632, 1995). Nuclear extracts were prepared from stimulated neuroblastoma cell cultures (10^7 cells/sample) using classical nuclear extraction protocols (Dignam et al., Nucl. Acids Res. 11: 1475-1489, 1983; Prywes and Roeder, Cell 47: 777-784, 1986). A 0.5 pmol aliquot of a synthetic ^32P labeled oligomer duplex (with a sequence known to bind a specific transcription factor, see Table 2) was mixed with 3 μg of nuclear extract protein, and the mixture incubated at room temperature for 20 minutes. Subsequent electrophoresis under non-denaturing conditions through 4% polyacrylamide gels were used to separate and resolve the high MW protein/DNA complexes (transcription factor/DNA oligomer duplex) form low MW uncomplexed DNA oligomers. Autoradiography was used to visualize and quantify the complexes formed (see FIG. 6).
Using the electrophoretic mobility shift assay (EMSA) we tested for changes in concentration of transcription factors AP-1 and NF-IL6 in neuroblastoma nuclei as a function of stimulation by peptide NMI-9236. These two factors are well known to function in cell proliferation and differentiation, and to be activated by protein kinase-C. […] Identification of the two observed bands as Jun/Fos heterodimers and Jun/Jun homodimers was based on their electrophoretic migration, as well as antibody studies (data not shown).
In general terms: A gel shift assay detects complexes by their altered migration in electrophoresis.

Test [5] deals with NF-IL6 transcription factor. The experiment in a line: EMSA of NF-IL6 in nuclear extracts of neuroblastoma cultures. It counts as cell-based, mouse. As for the experimental part:
as §1, §2
Identification of the observed band as NF-IL6 ([…]) was based on its electrophoretic migration, as well as antibody studies (data not shown).

For test [6], the system named is gerbil model for ischemic stroke (5 minute bilateral carotid occlusion). The experiment in a line: general locomotor activity (GLA) of gerbils after forebrain ischemia. It is filed as in vivo, male Mongolian gerbil. The text has this:
The gerbil (male Mongolian) has been widely used as an experimental model for studies of ischemic stroke because the brain blood supply is controlled by only two common carotid arteries. This unusual feature occurs in gerbils because they have an incomplete circle of Willis (Chandler et al., J. Pharmacol. Methods 14:137-146, 1985; Finkelstein et al., Restor. Neurol. Neurosci. 1:387-394, 1990; Levine and Sohn, Arch. Pathol. 87:315-317, 1969; Kahn, Neurology 22:510-515, 1972). A five minute bilateral carotid occlusion results in neuronal cell death that is predominantly localized in the CA1 subfield of the hippocampus. The CA1 neurons degenerate and virtually disappear by 7-8 days after ischemia (Akira, Res. in Immunol. 143:734-736 1992; Crain et al., Neurosci. 27:387-402, 1988). In addition, the gerbil model has the advantage that within one day after ischemia the animals increase by 100% to 200% their general locomotor activity. This readily measurable change can persist for at least eight days in most of the experimental animals (Akira, 1992; Kuroiwa et al., Neurosci. Lett. 122:141-144, 1991; Ohno et al., Eur. J Pharmacol. 193:357-361, 1991; Phillis, Brain Res. Bull. 23:467-470, 1989).
Male Mongolian gerbils were anesthetized with a mixture of isoflurane and oxygen using an inhalation apparatus (Stoelting Instrument Co.). An incision was made in the ventral neck and the common carotid arteries were isolated and occluded completely for a period of 5 minutes using microaneurysm clips. Next, the clips were removed and the incision sutured. The anesthesia was continued until the end of the i.v. injection and infusion period. Mean arterial blood pressure was monitored by a polyethylene catheter implanted in the left or right femoral […] during surgery. […]
GLA measurements were carried out in half hour sessions using the Stoelting Electronic Activity monitor (Shashoua et al., J. Med. Chem. 27:654-659, 1984; Jacob et al., J. Med. Chem. 30:1573-1576, 1987). Each gerbil's activity level was first assessed on days 3 and 1 prior to the experimental ischemia procedure to obtain a base line GLA data, then on days 1, 2, 5, and 7 after the carotid artery occlusion to determine efficacy of drug treatment. […]
Male Mongolian gerbils were anesthetized with a mixture of halothane and oxygen in Phase 1 of surgery and a cannula (an Alzet No. 2002 pump) was implanted subcutaneously in the midscapular region beneath the skin of the animal. […] All surgical procedures were carried out with a strict control of the temperature of each animal; rectal temperatures were monitored and heat was supplied via a temperature regulated heating pad. […]

The next test has as its system neurons. As to conditions: compared with 68 kilodalton parent protein; Shashoua et al., 1992; cited from earlier work.
Where [7] appears, read: 1 mg/kg i.v. @ 1 hr post ischemia, day 8, n=3.
The mark [8] stands for this setting: NB2a mouse neuroblastoma cultures, 5-50 μg/ml.
[9] abbreviates: neuroblastoma cells treated for 20 hours.
Where [10] appears, read: 2 mM glutamate + 12 μg/ml peptide.
Setting [11] is: 2 mM glutamate + 18 μg/ml peptide.

Where two headings read alike, the source gives them in different places. Some results are limits rather than exact numbers.

With `N[C@@H](CCC(=O)O)C(=O)O` [glutamate, reference compound], in test [1] (1 mM glutamate alone), the “% healthy” value came out at 51.5%, the Healthy cells worked out at 35 and the Total cells came to 68. In addition, in test [1] (2 mM glutamate alone), the “% healthy” value came out at 40.8%, the Healthy cells was determined as 62 and the Total cells is listed as 156.
With “D-F-A-I-D-A-P-E (DFAIDAPE) [SEQ ID NO:10]”, the “calcium chelation (in words)” value is on record as “chelate calcium as tightly as the peptide of SEQ ID NO:3” in test [2] and “chelates calcium” in test [2] (listed as SEQ ID NO: 10). Moreover, the “calcium chelation effectiveness relative to peptide of SEQ ID NO:4” value in test [2] (fura-2 fluorescence) is on record as “about half as effective as the peptide of SEQ ID NO:4”.
Regarding “K-K-D-G-D-G-D-F-A-I-D-A-P-E (KKDGDGDFAIDAPE) [NMI 9236, 14 amino acid peptide]”, in test [3] (setting [7]), the “Cell Density CA1-Hippocampal field” value is given as 13.3 ± 0.82 number of cells/1000 microns^2. In addition, the “Cell Density CA3-Hippocampal field” value in test [3] (setting [7]) is recorded as 8.82 ± 0.42 number of cells/1000 microns^2. Also, in test [3] (1 mg/kg i.v. bolus at 1 hr post ischemia), the “neuronal loss in CA1/CA3 versus sham operated controls (in words)” value was “essentially all the cells remained intact”. The “survival of L-CA1 neurons” value in test [3] (icv into left lateral ventricle, 8 days post-ischemia, left side) was found to be 52±12%. Moreover, in test [3] (icv into left lateral ventricle, 8 days post-ischemia, right (unprotected) side), the “survival of R-CA1 neurons” value worked out at 4±2%. In test [3] (icv, 8 days post surgery), the “L-CA1 cell density as % of level of sham operated control brain” value was “about 50%”. In addition, the “L-CA1 cell density count” value in test [3] (icv, 8 days post surgery, saline controls 0.6) is on record as 6.2 per 1000 micron^2. The same compound yielded a R-CA1 cell density in test [3] (icv, 8 days post surgery, stated comparable to saline controls) of roughly 0.6 per 1000 micron^2. Also, the “maximum survival of hippocampal pyramidal cells after ischemia” value in test [3] (in the presence of NMI 9236, 4% for control saline animals) is on record as no more than 62%. In addition, the “AP-1 activation, densitometric scans of the EMSA” value in test [4] is 3-5 fold. Also, the “activation of AP-1 relative to control” value is reported as “less pronounced” in test [4] (30 min); “strong activation” in test [4] (setting [9]); “very strong activation” in test [4] (serum-free medium, 20 hours). For the same compound, the “level of AP-1 in the nuclei of the cells” value in test [4] (setting [8]) is “increase”. In addition, in test [5] (1 μg/ml, in comparison to control), the “NF-IL6 activation, densitometric scan of the EMSA” value was 3-5 fold. Moreover, the “activation of NF-IL6 relative to control” value in test [5] (30 min) is “less pronounced”; in test [5] (setting [9]) it was “strong activation”; in test [5] (serum-free medium, 20 hours), “very strong activation”. In addition, in test [5] (setting [8]), the “level of NF-IL6 in the nuclei of the cells” value is on record as “increase”. The “average GLA, % of the day 1 data” value in test [6] (1 mg/kg i.v. (femoral vein) at 1 hour after occlusion, saline control 225%) is reported as 85%. Moreover, the “effect on GLA (in words)” value in test [6] (i.v. injection at 10 minutes after the ischemic event, n=3) is “blocked the development of enhanced GLA”. Moreover, the “GLA, % of own GLA one day prior to surgery” value in test [6] (icv delivery by Alzet pump, 1 milligram per ml, 7 days pre- and 7 days post-ischemia, n=4) is listed as 80%. The compound further had a GLA value in test [6] (subcutaneous (s.c.) injection at 1 hour after the surgery) of 200%. In addition, the “promotion of growth and sprouting of neurons” value in the test with neurons was “at least the same extent as its 68 kilodalton parent protein”. For the same compound, the “concentration at which the peptide completely eliminates fura-2 fluorescence” value in test [2] (in the cell culture medium) was 1 pg/mL. Moreover, the “% healthy” value is 92% in test [1] (setting [10]) and 81.6% in test [1] (setting [11]). In addition, the Healthy cells in test [1] (setting [10]) was 138; in test [1] (setting [11]), 80. Moreover, the Total cells in test [1] (setting [10]) worked out at 150; in test [1] (setting [11]) it was 98.
